Literature values, collected in patent publication US10945961B2, “Method using enteric-coated etidronate for treating calcification, hypercalcaemia, and calcinosis of the brain and other organs” (ZY YTHERAPEUTICS LLC, priority 2017, dated 2021).
Entries after “also recorded” stand apart in the source; their conditions may differ.

Legend:
[1] = for plasma half-life: comparison of first- with 2nd and 3rd generation bisphosphonates
[2] = animal studies
[3] = tested on: patients with brain calcifications (Fahr's Disease)
[4] = preclinical studies; immediate-release
[5] = in vitro

metabolism ([1]; in vivo)	amount of drug absorbed after an oral dose ([1]; oral dose, immediate-release)	absorbed dose excreted in urine ([1]; within 24 hours, fraction of the absorbed dose)	bone clearance estimates [2]	SMILES	plasma half-life [1]	symptomatic effect (seizures, headaches, Parkinsonian symptoms) ([3]; patients with brain calcification)	size of intracerebral calcifications ([3]; patients, finding of Loeb)	crossing of the blood-brain barrier [4]	affinity for solid-phase calcium phosphate [5]
not metabolized	3%	approximately half	up to 165 days	CC(O)(P(=O)(O)O)P(=O)(O)O [disodium etidronate, 1-hydroxyethane 1,1-diphosphonic acid]	6 h	reduction in seizures and headaches; also recorded: symptomatic improvement of seizures, headaches, and Parkinsonian symptoms	does not reduce the size of intracerebral calcifications	does not significantly cross the blood-brain barrier	high affinity
				O=P(O)(O)C(O)(Cn1ccnc1)P(=O)(O)O [zolendronic acid]	146 h				
